According to US20190134039A1, “ANTIVIRAL JAK INHIBITORS USEFUL IN TREATING OR PREVENTING RETROVIRAL AND OTHER VIRAL INFECTIONS” (EMORY UNIVERSITY, priority 2011, published 2019):

Columns and labels:
HIV-1LAI = experiment: microbe, parasite or virus in culture; details: Human immunodeficiency virus 1, PBMC, in Homo sapiens
From the text: PBM cells were isolated as follows: Lymphocytes were isolated from buffy coats derived from healthy donors obtained from Life South Laboratories (Dunwoody, Ga.). Activated lymphocytes were maintained for 72 hrs in medium that was supplemented with […] phytohemagglutinin (PHA) (Cape Cod associates, East Falmouth, Mass.). Media was comprised of RPMI media supplemented with 20% fetal calf serum, 1% penicillin/streptomyocin and 2% L-glutamine (Sigma Aldrich, San Jose, Calif.).
PBM cell infections: Testing was performed in duplicate with at least 3 independent assays. Cells were incubated in RPMI medium (HyClone, Logan, Utah) containing HR-IL2 (26.5 units/ml) and 20% fetal calf serum. Infections were performed by adding HIV-1LA1 followed by a further incubation at 37° C., 5% CO2, 1 hr prior to addition of drugs. Assays were performed in 24 well plates (BD Biosciences, Franklin Lakes, N.J.). One ml of supernatant was collected after 5 days in culture and then centrifuged at 12,000 rpm for 2 hr at 4° C. in a Jouan Br43i (Thermo Electron Corp., Marietta, Ohio). The product of the RT assay was quantified using a Packard harvester and direct beta counter and the data were analyzed as previously described (Schinazi et al, 1990).

HIV-1BaL = experiment: microbe, parasite or virus in culture; details: Human immunodeficiency virus 1, Macrophage, in Homo sapiens
Experimental: Macrophages were isolated as follows: Monocytes were isolated from buffy coats of HIV-1 negative, HBV/HCV-negative donors with density gradient centrifugation coupled with enrichment for CD14+ monocytes with Rosette Sep antibody cocktail (Stem Cell Technologies, Vancouver, British Columbia). Cells were seeded at a concentration of 1.0×10^6 cells/well for 1 hr at 37° C. and 5% CO2 to confer plastic adherence prior to repeated washes with 1×PBS. Macrophages were maintained in medium containing 100 U/ml macrophage colony-stimulating factor (m-CSF, R&D Systems, Minneapolis, Minn.), supplemented with 20% fetal calf serum (Atlanta Biologicals, Lawrenceville, Ga.) and 1% penicillin/streptomyocin (Invitrogen, Carlsbad, Calif.) for 7 days (37° C., 5% CO2) prior to testing.
Macrophage infections: Macrophages were cultured as described above for 7 days. […] 4 hrs after infection, virus was removed and drug-containing medium was returned to the cultures. Supernatants were collected on day 7 post-infection and HIV-1 p24 was quantified via ELISA (Zeptometrix Corporation, Buffalo, N.Y.). EC50 analysis was performed using CalcuSyn software (BioSoft Corporation, Cambridge, UK).

PHA + IL-2 PBM cells = experiment: cells; details: Homo sapiens, PBMC, read-out: IC50 in PHA + IL-2 PBM cells *MTT Assay
Mφ = experiment: cells; details: Homo sapiens, read-out: IC50 in Mφ *MTT Assay
CEM cells = experiment: cells; details: Homo sapiens, CCRF-CEM, read-out: IC50 in CEM cells *MTT Assay
Vero cells = experiment: cells; details: Chlorocebus sabaeus, read-out: IC50 in Vero cells *MTT Assay
wild-type HIV-1xxLAI = experiment: Antiviral potency in primary human lymphocytes, wild type; assay type: cell-based; details: Human immunodeficiency virus 1, Lymphocyte, xxLAI, primary human lymphocytes
HIV-1 containing M184V = experiment: microbe, parasite or virus in culture; assay type: cell-based
HIV-1 containing L74V = experiment: microbe, parasite or virus in culture; assay type: cell-based
[1] = tested on: HIV-1 containing A62V/V75I/F77L/F116Y/Q151M; experiment: microbe, parasite or virus in culture; assay type: cell-based
latent HIV-1 [2] = experiment: Reactivation of latent HIV-1 in primary human macrophages (PMA, p24 ELISA); assay type: cell-based; details: drug applied during reactivation, removed thereafter, within 72 hr post reactivation
latent HIV-1 [3] = experiment: Reactivation of latent HIV-1, J-Lat latency T cell system; assay type: cell-based; details: concentrations found during steady-state or Cmax in vivo
activated PBM cells = assay type: cell-based, human
From the text: The data is shown in FIG. 2, in terms of total cell number (10^6 cells) versus aM drug in medium.
The data is shown in FIG. 3, in terms of cell viability (%) versus aM drug in medium.

[4] = tested on: PHA stimulated primary human lymphocytes; experiment: Proliferation and viability of PHA stimulated primary human lymphocytes; assay type: cell-based; details: 5 days, all concentrations
Experimental: The effect of various Jak inhibitors on proliferation and viability of PHA or PHA+IL-2 stimulated primary human lymphocytes was evaluated using the techniques described above.
For all experiments, cells were incubated with media alone or drug-containing medium for 5 days prior to assessment of cell count and viability. Data are mean and standard deviations for at least three independent experiments conducted with at least 4 pooled donors, and duplicates within each experiment.

PBM cells = experiment: cells; details: Homo sapiens, PBMC, read-out: IC50 in PBM cells *Propidium Iodide assay
pSTAT1 = experiment: cells
pSTAT3 = experiment: cells
pSTAT5 = experiment: cells
HIV-2 = experiment: microbe, parasite or virus in culture; details: Human immunodeficiency virus 2, PBMC
[5] = Human immunodeficiency virus 1, Lymphocyte

## N#CC[C@H](C1CCCC1)n1cc(-c2ncnc3[nH]ccc23)cn1 [Jakafi, Ruxolitinib]
HIV-1LAI; read-out: Anti-HIV-1 EC50 in acutely infected PBM cells
  EC50: 0.1 ± 0.02 µM
HIV-1LAI; read-out: Anti-HIV-1 EC90 in acutely infected PBM cells
  EC90: 4.7 ± 0.07 µM
HIV-1BaL; read-out: Anti-HIV-1 EC50 in acutely infected MΦ
  EC50: 0.3 ± 0.1 µM
HIV-1BaL; read-out: Anti-HIV-1 EC90 in acutely infected MΦ
  EC90: 3.1 ± 1.8 µM
PHA + IL-2 PBM cells
  CC50: 3.1 ± 1.7 µM
Mφ
  IC50: > 100 µM
CEM cells
  IC50: 11.8 ± 1.1 µM
Vero cells
  IC50: 29.3 ± 3.7 µM
wild-type HIV-1xxLAI; read-out: EC50
  EC50: 0.3 ± 0.3 µM
wild-type HIV-1xxLAI; read-out: EC90
  EC90: 6.1 ± 7.6 µM
HIV-1 containing M184V; [5]
  EC90: 3.2 ± 2.3 µM
HIV-1 containing M184V; M184V
  FI50 (ratio of EC50 against mutant virus:EC50 against wild-type xxLAI): 1.3
  FI90 (ratio of EC90 against mutant virus:EC90 against wild-type xxLAI): 0.5
HIV-1 containing L74V; [5]
  EC50: 0.1 ± 0.2 µM
  EC90: 3.2 ± 2.6 µM
HIV-1 containing L74V; L74V
  FI50 (ratio of EC50 against mutant virus:EC50 against wild-type xxLAI): 0.5
  FI90 (ratio of EC90 against mutant virus:EC90 against wild-type xxLAI): 0.5
[1]; A62V/V75I/F77L/F116Y/Q151M
  FI50 (ratio of EC50 against mutant virus:EC50 against wild-type xxLAI): 0.1
  FI90 (ratio of EC90 against mutant virus:EC90 against wild-type xxLAI): 0.3
[1]; [5]
  EC50: 0.03 ± 0.02 µM
  EC90: 1.5 ± 1.5 µM
Latent HIV-1 [2]
  percent inhibition of reactivation of latent HIV-1 versus no drug control: ~35%
Latent HIV-1 [3]
  inhibition of reactivation of latent HIV-1: ≥ 50%
Activated PBM cells
  total cell proliferation (total cell number): do not affect total cell proliferation
  total cell viability: do not affect total cell viability
[4]
  proliferation versus cells exposed to media alone: not significantly different
  viability versus cells exposed to media alone: not significantly different
PBM cells
  IC50: > 50 µM
pSTAT1; read-out: EC50 pSTAT1
  EC50: < 0.01 µM
pSTAT1; read-out: EC90 pSTAT1
  EC90: < 0.01 µM
pSTAT3; read-out: EC50 pSTAT3
  EC50: < 0.01 µM
pSTAT3; read-out: EC90 pSTAT3
  EC90: 0.01 µM
pSTAT5; read-out: EC50 pSTAT5
  EC50: < 0.01 µM
pSTAT5; read-out: EC90 pSTAT5
  EC90: < 0.01 µM
HIV-2; read-out: Anti-HIV-2 EC50 in acutely infected PBM cells
  EC50: 0.02 ± 0.01 µM
HIV-2; read-out: Anti-HIV-2 EC90 in acutely infected PBM cells
  EC90: 0.4 ± 0.2 µM
